Tested on: passive anaphylaxis in guinea pig conjunctiva
Assay: passive conjunctival anaphylaxis, topical ocular antigen challenge, clinical scoring
Format: in vivo
Method: Emedastine difumarate was evaluated for its ability to inhibit a passive conjunctival immediate hypersensitivity response following topical ocular administration.
Guinea pigs (5-8/group) were passively sensitized with anti-ovalbumin serum injected subconjunctivally in one eye. Twenty-four hours after passive sensitization, ovalbumin (OA) was administered either i.v. or topically to the eye.
For assessment of the allergic response following topical ocular antigen challenge, 20 μL of ovalbumin (1.0 wt %) was administered to the sensitized eye 5 minutes after topical ocular application of emedastine difumarate or saline (20 μL). Thirty minutes later, the reaction was quantitated, using the following scoring scheme (maximum score per animal=10):
Congestion (refers to palpebral and bulbar conjunctiva):
3--Dark red conjunctiva; petechiae present
1--Any swelling on lower lid only
2--Swelling upper and lower lid, lids partially closed
3--Lids everted, very swollen, lids at least half closed
4--Swelling of both lids and side of face
1--Glazed, glassy appearance
2--Moist lids and surrounding hair
3--Moist lids and surrounding hair, thicker mucous-like

[1] = topical ocular antigen challenge, 5 min before challenge

CCOCCn1c(N2CCCN(C)CC2)nc2ccccc21 [Emedastine Difumarate, 1-(2-ethoxyethyl)-2-(4-methyl-1-homopiperazinyl)-benzimidazole]
reduction in severity of the hypersensitivity response (5 minutes before topical ocular antigen challenge): concentration-dependent reductions in the severity of the hypersensitivity response | attenuation of the hypersensitivity response (concentrations ranging from 0.0001% to 0.1%): Significant attenuation | % Change (topical ocular antigen challenge, 0.0001 wt %, 5 min before challenge): -29% | % Change (topical ocular antigen challenge, 0.001 wt %, 5 min before challenge): -45% | % Change (topical ocular antigen challenge, 0.01 wt %, 5 min before challenge): -51% | % Change (topical ocular antigen challenge, 0.1 wt %, 5 min before challenge): -67% | ED50 [1]: 0.0046 wt % | ED50 (text) [1]: 0.0046%

From US5668133A, “Ophthalmic compositions comprising emedastine and methods for their use” (priority 1995, dated 1997)
